From US20240199598A1 (MITOIMMUNE THERAPEUTICS INC., priority 2021, published 2024)

Tests used:
[1] = Maintenance of Crystalline form III under melting-cooling, water sorption and desorption, compressive behavior and grinding tests (XRPD); type: physicochemical; settings: melting-cooling method
Method: 10 mg of a sample was placed in a mesh stainless steel basket using SMS DVS Advantage 1. The entire experimental cycle consists of two scans (water sorption and desorption) at a constant temperature (25° C.) and 10% RH intervals in the range of 40 to 90% (60 to 360 minutes for each humidity level).
XRPD result, no novel crystalline form was produced.
As an XRPD result, no novel crystalline form was produced.
As a result of the XRPD test, no novel crystalline form was produced.
As a result of the XRPD test, no novel pattern was produced.

[2] = Stability test of Crystalline form III of sulfate (light, dark, 60° C., 40° C./75% RH); type: physicochemical
Method: The chemical and physical stability of Crystalline form III were studied under conditions of light, light-shielding, 60° C. and 40° C./75% RH for 1 month. […] In the light stability test, the crystalline form was stored in a light stability test chamber without a lid and thus exposed to a total illuminance of 1.2 million lux-hr, and a sample vial completely covered with an aluminum foil was regarded as a light-shielded control (Dark control). Appearance by visual observation for 2 weeks, 1 month, 2 months and 3 months was recorded, and purity assessment and XPRD data collection for residual solid contents were performed.

O=S1(=O)CCN(Cc2cc(NC3CCOCC3)c3[nH]c(-c4ccccc4)cc3c2)CC1 [Crystalline form III]
Stability of the crystalline form (in words) [1]: stable under each test condition
Purity decrease ([2]; 40° C. for 1 month): 0.67%
Appearance ([2]; 40° C./75% RH, 1 M): White powder
Assay ([2]; 40° C./75% RH, 1 M): 102.84%
Final purity ([2]; 40° C./75% RH, 1 M): 98.71%
Purity change ([2]; 40° C./75% RH, 1 M): −0.67%
XRPD patterns ([2]; 40° C./75% RH, 1 M): Pattern III
Appearance ([2]; 40° C./75% RH, 2 w): White powder
Assay ([2]; 40° C./75% RH, 2 w): 99.42%
Final purity ([2]; 40° C./75% RH, 2 w): 98.77%
Purity change ([2]; 40° C./75% RH, 2 w): −0.61%
XRPD patterns ([2]; 40° C./75% RH, 2 w): Pattern III
Stability (in words) ([2]; 60° C. for 1 month): stable
Appearance ([2]; 60° C., 1 M): White powder
Assay ([2]; 60° C., 1 M): 106.79%
Final purity ([2]; 60° C., 1 M): 99.25%
Purity change ([2]; 60° C., 1 M): −0.13%
XRPD patterns ([2]; 60° C., 1 M): Pattern III
Appearance ([2]; 60° C., 2 w): White powder
Assay ([2]; 60° C., 2 w): 101.08%
Final purity ([2]; 60° C., 2 w): 99.24%
Purity change ([2]; 60° C., 2 w): −0.14%
XRPD patterns ([2]; 60° C., 2 w): Pattern III
Appearance ([2]; Dark (light-shielded control)): White powder
Assay ([2]; Dark (light-shielded control)): 103.17%
Final purity ([2]; Dark (light-shielded control)): 99.33%
Purity change ([2]; Dark (light-shielded control)): −0.05%
XRPD patterns ([2]; Dark (light-shielded control)): Pattern III
Appearance ([2]; Initial): White powder
Final purity ([2]; Initial): 99.38%
XRPD patterns ([2]; Initial): Pattern III
Appearance ([2]; Light (1.2 million lux-hr)): Taupe powder
Assay ([2]; Light (1.2 million lux-hr)): 101.77%
Final purity ([2]; Light (1.2 million lux-hr)): 99.38%
Purity change ([2]; Light (1.2 million lux-hr)): −0.00%
XRPD patterns ([2]; Light (1.2 million lux-hr)): Pattern III
Stability (in words) ([2]; light and light-shielding conditions): stable
